Test results from patent US20260041677A1, “COMPOSITIONS AND METHODS FOR TREATING ADENOID CYSTIC CARCINOMA” (ELEVAR THERAPEUTICS, INC., priority 2022, published 2026).

Key:
R/M ACC = conditions: RECIST V1.1; 500 mg QD; 68 patients, head and neck R/M ACC; cited from earlier work
[1] = Phase 2 study of rivoceranib in R/M ACC: safety, adverse events, dose modifications; assay type: in vivo, human
Text: Overall design: An ongoing Phase 2, multicenter, open-label, single-arm study was designed to evaluate the efficacy and safety of rivoceranib in patients with recurrent or metastatic (R/M) adenoid cystic carcinoma (ACC) of all anatomic sites of origin. The study was composed of an initial screening phase (up to 28 days), a treatment phase, and a follow-up phase.
(§1) Objectives: Primary objectives were to evaluate safety & tolerability, efficacy by objective response rate (ORR), best overall response (BOR), time to response, duration of response, disease control rate, and duration of disease control. Secondary objectives were to evaluate efficacy as measured by overall survival, progression-free survival and event-free survival. The primary efficacy endpoint was the ORR, defined as the proportion of patients who achieved confirmed complete response (CR) or partial response (PR) per Response Evaluation Criteria in Solid Tumors (RECIST) Version 1.1 (V1.1). The secondary efficacy endpoints were duration of response (DoR) assessed by the investigator and a blinded independent review committee (BIRC), progression-free survival (PFS) assessed at 6 months, 12 months, and 2 years by investigator and BIRC, Time to Progression (TTP) assessed by investigator and BIRC, and overall survival (OS) assessed at 1 and 2 years. Exploratory efficacy endpoints include ORR per CHOI response criteria (based on the journal article, Choi et al., Correlation of computed tomography and positron emission tomography in patients with metastatic gastrointestinal stromal tumor treated at a single institution with imatinib mesylate: proposal of new computed tomography response criteria. J Clin Oncol. 2007; 25(13): 1753-1759) by a blinded independent review […] (BIRC) and disease control rate (DCR) per RECIST V1.1 by Investigator and BIRC. Except for CHOI response criteria, all response endpoints were assessed per RECIST V1.1 by Investigator and BIRC.
Dose determination: Enrolled patients initiated treatment with rivoceranib 700 mg daily (QD). Up to 3 levels of dose reduction for toxicity were permitted: 500 mg QD, 300 mg QD and 200 mg QD. Patients received treatment until disease progression, unacceptable toxicity, death or withdrawal of consent to treatment. Patients deriving benefit were permitted to continue treatment with rivoceranib beyond disease progression. After discontinuation of study treatment, patients were to be followed for survival (and initiation of new anticancer therapy) for 24 months. Patients were dosed with rivoceranib 700 mg orally daily (QD) in 28-day cycles. Treatment with rivoceranib was continued until disease progression, unacceptable toxicity, death, or withdrawal of consent.
The median duration of treatment was 31.07 weeks (range: 0.6 to 103.0). The median time-averaged daily dose was 397.6 mg/day, which was […] of initial daily dose of 700 mg/day. Overall, 85% of patients required 1 or more dose modifications (reduction or interruption) due to an adverse event (AE).
Safety Summary: Rivoceranib was generally well-tolerated with the toxicity profile as expected based on other studies of rivoceranib in patients with solid tumors, and consistent with the class effect of angiogenesis inhibitors. […] Four patients experienced a fatal adverse event. These events consisted of epistaxis in two patients and acute respiratory failure in two patients. […] The median time to each of these dose reductions was 4.00, 7.71 and 16.00 weeks, respectively. The median duration of treatment was 31.1 weeks (range, 0.6-103.0). The median actual dose intensity was 421.0 mg/day. The relative dose intensity was 60.1%. Overall, 68 patients required one or more dose modifications (reduction or interruption) due to an adverse event. The median time to first dose reduction was 4.1 weeks (range, 1-40).

[2] = test system: recurrent or metastatic (R/M) adenoid cystic carcinoma (ACC); assay: Phase 2 study of rivoceranib in R/M ACC: overall survival, intention-to-treat population; assay type: in vivo, human; conditions: 700 mg QD start
Text: as §1
The OS was calculated by Overall Survival (months)=12*(Date of death−First dose of rivoceranib+1)/365.25. Median OS were not evaluable. In general, OS rates at 6, 9 and 12 months were similar regardless of prior VEGFR inhibitor treatment or prior systemic anticancer treatment.

N#CC1(c2ccc(NC(=O)c3cccnc3NCc3ccncc3)cc2)CCCC1 [Rivoceranib, N-[4-(1-cyanocyclopentyl)phenyl]-2-{[(pyridin-4-yl)methyl]amino}pyridine-3-carboxamide]
6-month PFS (R/M ACC): 92.3%
ORR (R/M ACC): 46.2%
median DOR (R/M ACC): 17.7 months
fatal adverse event: acute respiratory failure ([1]; N = 80, 700 mg QD start): two
fatal adverse event: epistaxis ([1]; N = 80, 700 mg QD start): two
patients who experienced a fatal adverse event ([1]; N = 80, 700 mg QD start): Four
Median time to dose reduction to 300 mg QD ([1]; human, in vivo): 7.71 weeks
Median time to dose reduction to 500 mg QD ([1]; human, in vivo): 4.00 weeks
Number of Subjects with Dose Interruption (n, %) ([1]; human, in vivo): (83.8) %
Number of Subjects with Dose Modification (n, %) ([1]; human, in vivo): (88.8) %
Treatment interruptions due to adverse events, patients ([1]; human, in vivo): 86.3%
Treatment reductions due to adverse events, patients ([1]; human, in vivo): 48.8%
median time to first dose reduction ([1]; human, in vivo): 4.1 weeks
patients dose reduced from 700 mg QD to 500 mg QD ([1]; human, in vivo): 80.0%
patients dose reduced to 200 mg QD ([1]; human, in vivo): 32.5%
patients dose reduced to 300 mg QD ([1]; human, in vivo): 51.3%
OS rate at 6 months ([2]; ITT population): 94.7%
OS rate at 9 months ([2]; ITT population): 83.5%
OS landmark 12-months, % (95% CI) ([2]; ITT, Total N = 80): 74.5 (62.5-83.1) %
OS landmark 18-months, % (95% CI) ([2]; ITT, Total N = 80): 61.7 (48.3-72.5) %
OS landmark 12-months, % (95% CI) ([2]; ITT, VEGFRi-naïve N = 66): 77.4 (64.2-86.2) %
OS landmark 18-months, % (95% CI) ([2]; ITT, VEGFRi-naïve N = 66): 66.0 (51.1-77.3) %
Median OS ([2]; ITT, VEGFRi-treated N = 14): 17.5 months
OS landmark 12-months, % ([2]; ITT, VEGFRi-treated N = 14): 62.9%
OS landmark 18-months, % ([2]; ITT, VEGFRi-treated N = 14): 45.8%
